Laboratory results: BindingDB's records for doi:10.1021/jm981078h (Leiden University, 1999)

Molecular target: Asialoglycoprotein receptor 1 (Rattus norvegicus) (UniProt P02706)
Assay: Affinity tested by in vitro competition assay of [125I]ASOR binding to parenchymal rat liver cells

Chain of Asialoglycoprotein receptor 1 (Rattus norvegicus) (P02706 whole entry, looked up): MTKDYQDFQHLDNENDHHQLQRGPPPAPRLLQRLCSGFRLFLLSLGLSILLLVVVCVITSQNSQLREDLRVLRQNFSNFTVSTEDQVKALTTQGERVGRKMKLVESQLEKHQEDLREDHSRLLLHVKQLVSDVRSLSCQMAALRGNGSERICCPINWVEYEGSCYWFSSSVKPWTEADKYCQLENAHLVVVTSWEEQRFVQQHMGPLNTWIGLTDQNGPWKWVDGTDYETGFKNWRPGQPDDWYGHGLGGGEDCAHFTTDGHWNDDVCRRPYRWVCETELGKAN

Row | Ki [nM] | SMILES
1 | 93 | O=C(CCCCO[C@@H]1O[C@@H](CO)[C@H](O)[C@H](O)[C@@H]1O)NCCCNC(=O)CCOCC(COCCC(=O)NCCCNC(=O)CCCCO[C@@H]1O[C@@H](CO)[C@H](O)[C@H](O)[C@@H]1O)(COCCC(=O)NCCCNC(=O)CCCCO[C@@H]1O[C@@H](CO)[C@H](O)[C@H](O)[C@@H]1O)NC(=O)CNC(=O)OCc1ccccc1 [Galactoside analogue]
2 | 93 | O=C(CCCCO[C@@H]1O[C@@H](CO)[C@H](O)[C@H](O)[C@@H]1O)NCC(=O)NCCCC(=O)OCC(COC(=O)CCCNC(=O)CNC(=O)CCCCO[C@@H]1O[C@@H](CO)[C@H](O)[C@H](O)[C@@H]1O)(COC(=O)CCCNC(=O)CNC(=O)CCCCO[C@@H]1O[C@@H](CO)[C@H](O)[C@H](O)[C@@H]1O)NC(=O)CNC(=O)OCc1ccccc1 [Galactoside analogue]

Row | SMILES | Ki [nM]
3 | CC(C)CCCC(C)[C@H]1CC[C@H]2[C@@H]3CC=C4C[C@@H](OC(=O)CNC(=O)CCCCC(=O)NCC(=O)NC(COCOCCOCCOCCOCCO[C@@H]5O[C@@H](CO)[C@H](O)[C@H](O)[C@@H]5O)(COCOCCOCCOCCOCCO[C@@H]5O[C@@H](CO)[C@H](O)[C@H](O)[C@@H]5O)COCOCCOCCOCCOCCO[C@@H]5O[C@@H](CO)[C@H](O)[C@H](O)[C@@H]5O)CC[C@]4(C)[C@H]3CC[C@]12C (stereo partly drawn) [TG(20)C-Galactoside analogue] | 200
